Measurements reported in patent US7205304B2, “Sulfonyl-Derivatives as novel inhibitors of histone deacetylase” (Janssen Pharmaceutica N.V., priority 2002, dated 2007).
Values after ≈ are worked out from the molar mass of the structure shown.

Key:
[1] = target: histone deacetylase (HeLa nuclear extracts); test: In vitro assay for inhibition of histone deacetylase; assay type: biochemical; conditions: [3H]acetylated histone H4 peptide substrate
Protocol: The in vitro assay for inhibition of histone deacetylase (see example C.1) measures the inhibition of HDAC enzymatic activity obtained with the compounds of formula (I).
HeLa nuclear extracts (supplier: Biomol) were incubated at 60 μg/ml with 2×10^−8 M of radiolabeled peptide substrate. As a substrate for measuring HDAC activity a synthetic peptide, i.e. the amino acids 14–21 of histone H4, was used. The substrate is biotinylated at the NH2-terminal part with a 6-aminohexanoic acid spacer, and is protected at the COOH-terminal part by an amide group and specifically [^3H]acetylated at lysine 16. The substrate, biotin-(6-aminohexanoic)Gly-Ala-([^3H]-acetyl-Lys-Arg-His-Arg-Lys-Val-NH2), was added in a buffer containing 25 mM Hepes, 1 M sucrose, 0.1 mg/ml BSA and 0.01% Triton X-100 at pH 7.4. After 30 min the deacetylation reaction was terminated by the addition of HCl and acetic acid. (final concentration 0.035 mM and 3.8 mM respectively). After stopping the reaction, the free ^3H-acetate was extracted with ethylacetate. After mixing and centrifugation, the radioactivity in an aliquot of the upper (organic) phase was counted in a β-counter.
For each experiment, controls (containing HeLa nuclear extract and DMSO without compound), a blank incubation (containing DMSO but no HeLa nuclear extract or compound) and samples (containing compound dissolved in DMSO and HeLa nuclear extract) were run in parallel. In first instance, compounds were tested at a concentration of 10^−5M. […] In each test the blank value was substracted from both the control and the sample values. The control sample represented 100% of substrate deactylation. For each sample the radioactivity was expressed as a percentage of the mean value of the controls. […] Herein the effects of test compounds are expressed as pIC50 (the negative log value of the IC50-value).

[2] = system: A2780 ovarian carcinoma cells; test: Antiproliferative activity on A2780 cells (MTT); assay type: cell-based, human; conditions: four days of incubation; for IC50: Homo sapiens, A2780, 96 h, read-out: Cellular activity pIC50 (converted)
Protocol: Cellular activity of the compounds of formula (I) was determined on A2780 tumour cells using a colorimetric assay for cell toxicity or survival (Mosmann Tim, Journal of Immunological Methods 65: 55–63, 1983)(see example C.2).
All compounds tested were dissolved in DMSO and further dilutions were made in culture medium. Final DMSO concentrations never exceeded 0.1% (v/v) in cell proliferation assays. Controls contained A2780 cells and DMSO without compound and blanks contained DMSO but no cells. MTT was dissolved at 5 mg/ml in PBS. A glycine buffer comprised of 0.1 M glycine and 0.1 M NaCl buffered to pH 10.5 with NaOH (1 N) was prepared (all reagents were from Merck).
The human A2780 ovarian carcinoma cells (a kind gift from Dr. T. C. Hamilton [Fox Chase Cancer Centre, Pennsylvania, USA]) were cultured in RPMI 1640 medium supplemented with 2 mM L-glutamine, 50 μg/ml gentamicin and 10% fetal calf serum. Cells were routinely kept as monolayer cultures at 37° C. in a humidified 5% CO2 atmosphere. Cells were passaged once a week using a trypsin/EDTA solution at a split ratio of 1:40. All media and supplements were obtained from Life Technologies. Cells were free of mycoplasma contamination as determined using the Gen-Probe Mycoplasma Tissue Culture kit (supplier: BioMérieux).
Cells were seeded in NUNC™ 96-well culture plates (Supplier: Life Technologies) and allowed to adhere to the plastic overnight. Densities used for plating were 1500 cells per well in a total volume of 200 μl medium. After cell adhesion to the plates, medium was changed and drugs and/or solvents were added to a final volume of 200 μl. Following four days of incubation, medium was replaced by 200 μl fresh medium and cell density and viability was assessed using an MTT-based assay. To each well, 25 μl MTT solution was added and the cells were further incubated for 2 hours at 37° C. The medium was then carefully aspirated and the blue MTT-formazan product was solubilized by addition of 25 μl glycine buffer followed by 100 μl of DMSO. […] Within an experiment, the results for each experimental condition are the mean of 3 replicate wells. For initial screening purposes, compounds were tested at a single fixed concentration of 10^−6 M. For active compounds, the experiments were repeated to establish full concentration-response curves. For each experiment, controls (containing no drug) and a blank incubation (containing no cells or drugs) were run in parallel. The blank value was subtracted from all control and sample values. For each sample, the mean value for cell growth (in absorbance units) was expressed as a percentage of the mean value for cell growth of the control. […] Herein the effects of test compounds are expressed as pIC50 (the negative log value of the IC50-value).

[3] = Kinetic solubility in aqueous media (nephelometry); assay type: physicochemical; conditions: phosphate citrate buffer, pH 7.4, aqueous buffer, kinetic from dmso stock, phosphate citrate buffer pH 7.4, turbidity of three dilution steps; read-out: Solubility Score
Protocol: Kinetic solubility in aqueous media measures the ability of a compound to stay in aqueous solution upon dilution (see example C.3).
DMSO-stock solutions are diluted with a single aqueous buffer solvent in 3 consecutive steps. For every dilution turbidity is measured with a nephelometer.
In the first dilution step, 10 μl of a concentrated stock-solution of the active compound, solubilized in DMSO (5 mM), was added to 100 μl phosphate citrate buffer pH 7.4 and mixed. In the second dilution step, an aliquot (20 μl) of the first dilution step was further dispensed in 100 μl phosphate citrate buffer pH 7.4 and mixed. Finally, in the third dilution step, a sample (20 μl) of the second dilution step was further diluted in 100 μl phosphate citrate buffer pH 7.4 and mixed. All dilutions were performed in 96-well plates. Immediately after the last dilution step the turbidity of the three consecutive dilution steps were measured with a nephelometer. Dilution was done in triplicate for each compound to exclude occasional errors. Based on the turbidity measurements a ranking is performed into 3 classes. Compounds with high solubility obtained a score of 3 and for this compounds the first dilution is clear. Compounds with medium solubility obtained a score of 2. For these compounds the first dilution is unclear and the second dilution is clear. […] The solubility of 112 compounds was measured.

Enzyme activity pIC50 [1]	IC50 [2] [nM]	solubility [3] [µM]	Cellular activity pIC50 [2]	Compound
6.482	> 10000			O=C(NO)c1ccc(N2CCCN(S(=O)(=O)c3ccc4ccccc4c3)CC2)cc1 [Compound 1]
7.147	1940	< 75.8		O=C(NO)c1ccc(N2CCN(S(=O)(=O)c3ccc4ccccc4c3)CC2)cc1 [Compound 2]
<5				O=C(NO)c1cccc(CN2CCN(S(=O)(=O)c3ccc4ccccc4c3)CC2)c1 [Compound 7]
7.587	2280	> 454		O=C(NO)c1ccc(NC(=O)N2CCN(S(=O)(=O)c3ccc4ccccc4c3)CC2)cc1 [Compound 8]
6.621	5790	> 454		O=C(NO)c1cnc(N2CCN(S(=O)(=O)N3CCOCC3)CC2)nc1 [Compound 14]
7.332	107	75.8 to 454 (≈ 35.6 to 213 µg/mL)		COc1cccc(-c2ccc(S(=O)(=O)N3CCN(c4ncc(C(=O)NO)cn4)CC3)cc2)c1 [Compound 15]
<5	> 10000			O=C(NCCO)c1ccc(N2CCN(S(=O)(=O)c3ccc4ccccc4c3)CC2)cc1 [Compound 16]
<5	764	< 75.8		Nc1ccccc1NC(=O)c1ccc(N2CCN(S(=O)(=O)c3ccc4ccccc4c3)CC2)cc1 [Compound 17]
<5	4080	< 75.8		NCCNC(=O)c1ccc(N2CCN(S(=O)(=O)c3ccc4ccccc4c3)CC2)cc1 [Compound 18]
<5	> 10000	< 75.8		O=C(CS)Nc1ccc(N2CCN(S(=O)(=O)c3ccc4ccccc4c3)CC2)cc1 [Compound 19]
<5				O=C(NO)c1cc([N+](=O)[O-])ccc1N1CCN(S(=O)(=O)c2ccc(Cl)s2)CC1 [Compound 22]
6.247	4530	> 454		CS(=O)(=O)c1ccccc1S(=O)(=O)N1CCN(c2ccc(C(=O)NO)cc2)CC1 [Compound 60]
<5	6870			O=C(NO)c1ccc(N2CCN(S(=O)(=O)c3cc(C(F)(F)F)cc(C(F)(F)F)c3)CC2)cc1 [Compound 75]
5.937	7100			COc1ccc(OC)c(S(=O)(=O)N2CCN(c3ccc(C(=O)NO)cc3)CC2)c1 [Compound 77]
<5	> 10000			O=C1CCC(C(=O)Nc2ccc(N3CCN(S(=O)(=O)c4ccc5ccccc5c4)CC3)cc2)N1 (stereo not shown) [Compound 84]
<5	> 10000			Cc1cnc(C(=O)Nc2ccc(N3CCN(S(=O)(=O)c4ccc5ccccc5c4)CC3)cc2)cn1 [Compound 85]
<5	> 10000			O=C(Nc1ccc(N2CCN(S(=O)(=O)c3ccc4ccccc4c3)CC2)cc1)c1ccc(=O)[nH]c1 [Compound 86]
<5	> 10000			O=C(Nc1ccc(N2CCN(S(=O)(=O)c3ccc4ccccc4c3)CC2)cc1)c1ccc[nH]c1=O [Compound 87]

Enzyme activity pIC50 [1]	IC50 [2] [nM]	solubility [3] [µM]	Cellular activity pIC50 [2]	Compound
6.423	6070			O=C(NO)c1ccc(C(=O)N2CCN(S(=O)(=O)c3ccc4ccccc4c3)CC2)cc1 [Compound 89]
7.876	723			CC(C)(C)c1ccc(S(=O)(=O)N2CCN(c3ncc(C(=O)NO)cn3)CC2)cc1 [Compound 92]
7.938	125			O=C(NO)c1cnc(N2CCN(S(=O)(=O)c3ccc4c(Cl)cccc4c3)CC2)nc1 [Compound 97]
6.671	101			COc1ccc(-c2ccc(S(=O)(=O)N3CCN(c4ncc(C(=O)NO)cn4)CC3)cc2)cc1OC [Compound 101]
8.152	58.5			O=C(NO)c1cnc(N2CCN(S(=O)(=O)c3ccc(-c4ccsc4)cc3)CC2)nc1 [Compound 104]
<5	1740			O=C(NO)c1cnc(N2CCN(S(=O)(=O)c3ccc4ccccc4c3)CC2)nc1N1CCN(S(=O)(=O)c2ccc3ccccc3c2)CC1 [Compound 117]
7.162	461			O=C(NO)c1cnc(N2CCN(S(=O)(=O)c3ccc(-c4ccc5[nH]ccc5c4)cc3)CC2)nc1 [Compound 132]
7.612	55.2			O=C(NO)c1cnc(N2CCN(S(=O)(=O)c3ccc(-c4ccc(CO)cc4)cc3)CC2)nc1 [Compound 139]
7.739	99.8			Nc1ccc(-c2ccc(S(=O)(=O)N3CCN(c4ncc(C(=O)NO)cn4)CC3)cc2)cc1 [Compound 140]
7.125	991			O=C(NO)c1cnc(N2CCCN(S(=O)(=O)c3ccc4ccccc4c3)CC2)nc1 [Compound 141]
8.565	119			CN(C)CCN(C)Cc1sccc1-c1ccc(S(=O)(=O)N2CCN(c3ncc(C(=O)NO)cn3)CC2)cc1 [Compound 146]
8.7	275			O=C(NO)c1cnc(N2CCN(S(=O)(=O)c3ccc(-c4ccccc4OCCN4CCOCC4)cc3)CC2)nc1 [Compound 153]
7.939	87.1			O=C(NO)c1cnc(N2CCN(S(=O)(=O)c3ccc(-c4ccc(OCCN5CCOCC5)cc4)cc3)CC2)nc1 [Compound 155]
8.568	30			CN(C)CCCOc1ccc(-c2ccc(S(=O)(=O)N3CCN(c4ncc(C(=O)NO)cn4)CC3)cc2)cc1 [Compound 156]
	117		7.039	O=C(NO)c1cnc(N2CCN(S(=O)(=O)c3ccc(-c4ccc(CN5CCOCC5)cc4)cc3)CC2)nc1 [Compound 162]
8.553	42.7			CN(C)Cc1ccc(-c2ccc(S(=O)(=O)N3CCN(c4ncc(C(=O)NO)cn4)CC3)cc2)cc1 [Compound 163]
<5	> 10000			O=C(NO)c1cnc(N2CCN(S(=O)(=O)c3ccc(-c4cc(C(F)(F)F)cc(C(F)(F)F)c4)cc3)CC2)nc1 [Compound 180]
